Read-outs that look alike come from different tables or passages of the source.
Tests used:
[1] = Clinical plasma and CSF pharmacokinetics, part A; type: in vivo; conditions: human
Method: Protocol CC-90010-ST-001 Celgene Corporation
Following oral administration of CC-90010, geometric mean peak exposure to CC-90010, based on Cmax, increased with dose on Day 1 (single dose) and after last dose (repeated dosing), in a manner approximately proportional with dose. Across all dose levels and both sampling occasions, Cmax was observed a few hours after dosing, with median tmax ranging from 1 to 2 hours postdose. The terminal elimination half-life, where estimated, was generally similar across the dose schedules, ranging from approximately 40 to 70 hours, after repeated dosing of […]
across the dose levels, after repeated dosing of CC-90010. There was evidence of accumulation after repeated dosing of CC-90010 for all dose schedules and dose levels, with accumulation […]
Between-subject variability across the dose levels ranged from 22.0% to 91.7% on Day 1 based […]
Cerebrospinal fluid samples were collected for one subject, who had quantifiable cerebrospinal fluid concentrations of CC-90010, with an average time matched CSF/plasma ratio of 6.6%.
1.4. Safety Monitoring Plan […]
(1 picture or pasted object on this page, not shown here)
The provisional CC-90010 dose levels (total doses within on cycle) are: 180 mg in Schedule 1, […]
220 mg in Schedule 4. It is however possible for some doses to be skipped or additional dose levels to be added during the course of the study, based on the emerging safety information.
After each cohort the posterior distributions for the probabilities of a DLT rates at different dose levels are obtained. The results of this analysis are summarized in terms of the estimated probabilities that the true rate of DLT at each dose-level will have of lying in each of the […]
• [0.16, 0.33) targeted toxicity
• [0.33, 1.00] excessive toxicity.
Following the principle of escalation with EWOC, after each cohort of subjects the recommended dose is the one with the highest posterior probability of the DLT rate falling in the target interval [16%, 33%) among the doses fulfilling EWOC, ie, it is unlikely (<25% posterior probability) that the DLT rate at the dose falls in the excessive toxicity interval.
Note that the dose that maximizes the posterior probability of targeted toxicity is the best estimate of the MTD, but it may not be an admissible dose according to the overdose criterion if the amount of data is insufficient. […]
Plasma PK parameters such as AUC0-24, C max, Tmax, t1/2, CL/F, and Vz/F of CC-90010 will be calculated by the noncompartmental analysis method from the plasma concentration-time profiles of CC-90010. Additional PK parameters including CSF to plasma concentration ratio of CC-90010, may be calculated, if data permits. […]

[2] = test system: BR0869f ER-PR-Her2+ PDX-derived breast cancer model; parameters: method as in Investigator's Brochure; conditions: 7 or 14 days, ref Investigator's Brochure, read-out: mean IC50, colony formation; cited from earlier work
[3] = test system: COH71 TNBC PDX-derived model; parameters: method as in Investigator's Brochure; conditions: COH71, ref Investigator's Brochure; read-out: IC50, colony formation; cited from earlier work
[4] = parameters: method as in PMID 32240793; conditions: part A preliminary results; cited from earlier work
SU-DHL-4 (DOX-R) = test system: SU-DHL-4 (DOX-R); parameters: method as in Report CC-90010-Pharm-1018; conditions: Table 2, ref Report CC-90010-Pharm-1018, read-out: absolute IC50, proliferation; cited from earlier work
[5] = test system: FOSL1 gene expression in U-87 glioblastoma cells; parameters: method as in Investigator's Brochure; conditions: U-87 cells, ref Investigator's Brochure; read-out: IC50, inhibition of FOSL1 gene expression; cited from earlier work
[6] = parameters: method as in Investigator's Brochure; conditions: 2 hours postdose, ref Investigator's Brochure, cited from earlier work
OCI-LY-10 (DOX-R) = test system: OCI-LY-10 (DOX-R); parameters: method as in Report CC-90010-Pharm-1018; conditions: Table 2, ref Report CC-90010-Pharm-1018, read-out: absolute IC50, proliferation; cited from earlier work
[7] = test system: bacterial reverse mutation; parameters: method as in Investigator's Brochure; conditions: non-GLP, ref Investigator's Brochure; cited from earlier work
[8] = parameters: method as in PMID 32240793; conditions: cited from earlier work
[9] = test system: COH69 TNBC PDX-derived model; parameters: method as in Investigator's Brochure; conditions: COH69, ref Investigator's Brochure; read-out: IC50, colony formation; cited from earlier work

Work on `Cn1cc(-c2cc(S(C)(=O)=O)ccc2OCC2CC2)c2ccccc2c1=O` [trotabresib] yielded a Kp ([1]; CSF, oral, one subject, read-out: average time matched CSF/plasma ratio) of 0.066, a Tmax ([1]; in vivo, part A, across all dose levels, Day 1 and last dose, read-out: median tmax) of 1 to 2 h and a Vd/F ([1]; in vivo, part A, across dose levels, after repeated dosing, read-out: Vss/F) of 134 to 553 L. For the same molecule, the half-life ([1]; in vivo, part A, across dose schedules, after repeated dosing, read-out: terminal elimination half-life) was 40 to 70 h, the IC50 [2] was 120 ± 10 nM and the IC50 [3] was 180 ± 20 nM. For the same molecule, the oral bioavailability [4] was “high oral bioavailability”, the t1/2 [4] was ~ 60 h and the IC50 (SU-DHL-4 (DOX-R)) was 899 nM. For the same molecule, the IC50 [5] was 30 nM, the maximally-measured tumor level ([6]; COH70, 2 mg/kg) was 1.3 ± 0.3 µM and the maximally-measured tumor level ([6]; COH70, 10 mg/kg) was 6.7 ± 1.7 µM. For the same molecule, the IC50 (OCI-LY-10 (DOX-R)) was 1100 nM, the “mutagenicity (Ames)” value [7] was “non-mutagenic” and the “alternative RP2D” value ([8]; 3 days on/11 days off) was 30 mg/day. For the same molecule, the “recommended phase II dose (RP2D)” value ([8]; 4 days on/24 days off) was 45 mg/day and the IC50 [9] was 70 nM.
